Data published in patent US6407109B1, “Pyrrolyl tetrahydroquinoxalin diones, their production and use in the treatment of diseases” (Abbott Laboratories, priority 1995, dated 2002).

tested on: AMPA receptor; experiment: Binding of 3H-AMPA to rat cerebral membrane material; conditions: compared with 1-(ethoxycarbonylmethyl)-7-(3-formyl-1-pyrrolyl)-6-nitroquinoxaline-2,3(1H,4H)-dione
Method: The pharmacological activity of the compounds I was investigated on isolated membrane material from rat cerebra. For this purpose, the membrane material was treated in the presence of the compounds according to the invention with the radiolabeled substance ^3H-2-amino-3-hydroxy-5-methyl-4-isoxazolepropionic acid (^3H-AMPA), [^3H]-glycine or [^3H]-kainate which bind to specific receptors (AMPA, NMDA or kainate receptors). The radioactivity of the treated membranes was then measured by scintillation counting. It was possible to determine from the bound radioactivity the amounts of bound ^3H-AMPA, [^3H]-glycine or [^3H]-kainate, or in each case the displaced amounts of these radiolabeled substances. […]
To prepare the membrane material, freshly removed rat cerebra were homogenized together with 15 times the volume of a buffer solution A composed of 30 mM tris(hydroxymethyl)methylamine hydrochloride (TRIS-HCl) and 0.5 mM ethylenediaminetetraacetic acid (EDTA), pH 7.4, using an Ultra-Turrax^R. The suspension was centrifuged at 48000 g for 20 min. […] After measurement of the radioactivity of the bound ^3H-AMPA in the membrane material by scintillation counting, the KI was determined by regression analysis of the displacement plots.

Q: For `CCOC(=O)Cn1c(=O)c(=O)[nH]c2cc([N+](=O)[O-])c(-n3ccc(C(=O)O)c3)cc21` [Example 2, 7-(3-Carboxy-1-pyrrolyl)-1-(ethoxycarbonylmethyl)-6-nitroquin-oxaline-2,3(1H,4H)-dione], which “activity in 3H-AMPA binding relative to the closely related aldehyde (Example 80 in EP 572 852)” value is on record?
A: distinctly more active

same assay, conditions: isolated membrane material from rat cerebra, 3H-AMPA, incubated on ice for 60 min; read-out: kI (dissociation constant, displacement of 3H-AMPA)

Q: Which Ki does the source give for `CCOC(=O)Cn1c(=O)c(=O)[nH]c2cc([N+](=O)[O-])c(-n3ccc(C(=O)O)c3)cc21` [Example 2, 7-(3-Carboxy-1-pyrrolyl)-1-(ethoxycarbonylmethyl)-6-nitroquin-oxaline-2,3(1H,4H)-dione] here?
A: < 10 µM

tested on: not given; experiment: not given; conditions: not given

Q: For `O=C(O)Cn1c(=O)c(=O)[nH]c2ccc3c(-n4ccc(C(=O)O)c4)cccc3c21` [Example 15, 1-Carboxymethyl-7-(3-carboxy-1-pyrrolyl)benzo[f]quinoxaline-2,3(1H, 4H)-dione], which melting point is on record?
A: > 300 °C

Q: Which melting point does the source give for `O=C(O)Cn1c(=O)c(=O)[nH]c2cc([N+](=O)[O-])c(-n3ccc(C(=O)NCCCc4ccccc4)c3)cc21` [Example 21, 1-Carboxymethyl-6-nitro-7-(3-(3-phenylpropylcarbamoyl)-1-pyrrolyl)quinoxaline-2,3(1H,4H)-dione] here?
A: 224 to 227 °C (dec.)

Q: With `O=C(O)Cn1c(=O)c(=O)[nH]c2cc([N+](=O)[O-])c(-n3ccc(C(=O)NCc4ccncc4)c3)cc21` [Example 22, 1-Carboxymethyl-6-nitro-7-(3-(4-pyridinylmethylcarbamoyl)-1-pyrrolyl)quinoxaline-2,3(1H,4H)-dione] as the compound, how does the melting point read?
A: > 300 °C

Q: Which melting point does the source give for `CCOC(=O)Cn1c(=O)c(=O)[nH]c2cc([N+](=O)[O-])c(-n3ccc(C(=O)NCc4ccc([N+](=O)[O-])cc4)c3)cc21` here?
A: > 300 °C

Q: With `CCOC(=O)Cn1c(=O)c(=O)[nH]c2cc([N+](=O)[O-])c(-n3ccc(C(=O)NCc4ccccc4)c3)cc21` [Example 8, 7-(3-Benzylcarbamoyl-1-pyrrolyl)-1-ethoxycarbonylmethyl-6-nitro-quinoxaline-2,3(1H,4H)-dione] as the compound, how does the melting point read?
A: 223 °C (dec.)

Q: With `CCOC(=O)Cn1c(=O)c(=O)[nH]c2cc([N+](=O)[O-])c(-n3ccc(C(=O)NCc4ccncc4)c3)cc21` [Example 11, 1-Ethoxycarbonylmethyl-6-nitro-7-(3-(4-pyridinylmethylcarbamoyl)-1-pyrrolyl)quinoxaline-2,3(1H,4H)-dione] as the compound, how does the melting point read?
A: > 300 °C

Q: With `CCOC(=O)Cn1c(=O)c(=O)[nH]c2ccc3ccc(-n4ccc(C(=O)O)c4)cc3c21` [Example 3, 9-(3-Carboxy-1-pyrrolyl)-1-(ethoxycarbonylmethyl)benzo[f]-quinoxaline-2,3(1H,4H)-dione] as the compound, how does the melting point read?
A: 292 to 295 °C

Q: With `O=C(O)Cn1c(=O)c(=O)[nH]c2cc([N+](=O)[O-])c(-n3ccc(C(=O)NCc4ccc([N+](=O)[O-])cc4)c3)cc21` as the compound, how does the melting point read?
A: > 210 °C (dec.)

Q: With `O=C(O)Cn1c(=O)c(=O)[nH]c2cc([N+](=O)[O-])c(-n3ccc(C(=O)N4CCN(CCc5ccccc5)CC4)c3)cc21` [Example 20, 1-Carboxymethyl-6-nitro-7-(3-(4-(2-phenylethyl)-1-piperazinyl-carbonyl)-1-pyrrolyl)quinoxaline-2,3(1H, 4H)-dione] as the compound, how does the melting point read?
A: > 250 °C (dec.)
